Measured values as given in US20060247129A1, “Surfactant compounds and agrochemical compositions” (Imperial Chemical Industries PLC, priority 2003, published 2006).

How the values were obtained:
Assay in all cases: glasshouse herbicide spray test, % weed control, adjuvant with glyphosate potassium salt
Format in all cases: in vivo
Conditions in all cases: 19 days after treatment
[1] = system: Abutilon Theophrasti
Description: (§1) The compound of Synthesis Example SE1 was tested as an adjuvant with glyphosate potassium salt, mixing the glyphosate and adjuvant in a tank mix using concentrations of glyphosate from 0.125 to 2 g.l-1 and of adjuvant from 0.003125 to 0.2% v/v. The tank mixes were sprayed as a herbicide on a variety of test species at an application rate of 200 l.ha^−1 to give application rates of glyphosate of from 25 to 400 g (active ingredient).ha^−1. The plants were grown in a warm glasshouse and assessed 19 days after treatment for % control—the mean of three replicates for visually assessed % weed control, relative to unsprayed plants of each species in the same test.
(§2) Example AE1 was repeated but using the compound made in Synthesis Example SE4 as the adjuvant.

[2] = system: Echinochloa crus-galli
Description: as §1, §2

[3] = system: Sida Spinosa
Description: as §1, §2

[4] = system: Solanum nigra
Description: as §1, §2

[5] = system: Portulaca oleracea
Description: as §1, §2

[6] = system: Sorghum halepense
Description: as §1, §2

[7] = glyphosate 50 g ai/ha, adjuvant 0.003125 % v/v
[8] = glyphosate 50 g ai/ha, adjuvant 0.0125 % v/v
[9] = glyphosate 50 g ai/ha, adjuvant 0.05 % v/v
[10] = glyphosate 50 g ai/ha, adjuvant 0.2 % v/v
[11] = glyphosate 100 g ai/ha, adjuvant 0.003125 % v/v
[12] = glyphosate 100 g ai/ha, adjuvant 0.0125 % v/v
[13] = glyphosate 100 g ai/ha, adjuvant 0.05 % v/v
[14] = glyphosate 100 g ai/ha, adjuvant 0.2 % v/v
[15] = glyphosate 200 g ai/ha, adjuvant 0.003125 % v/v
[16] = glyphosate 200 g ai/ha, adjuvant 0.0125 % v/v
[17] = glyphosate 200 g ai/ha, adjuvant 0.05 % v/v
[18] = glyphosate 200 g ai/ha, adjuvant 0.2 % v/v
[19] = glyphosate 400 g ai/ha, adjuvant 0.003125 % v/v
[20] = glyphosate 400 g ai/ha, adjuvant 0.0125 % v/v
[21] = glyphosate 400 g ai/ha, adjuvant 0.05 % v/v
[22] = glyphosate 400 g ai/ha, adjuvant 0.2 % v/v
[23] = glyphosate 25 g ai/ha, adjuvant 0.003125 % v/v
[24] = glyphosate 25 g ai/ha, adjuvant 0.0125 % v/v
[25] = glyphosate 25 g ai/ha, adjuvant 0.05 % v/v
[26] = glyphosate 25 g ai/ha, adjuvant 0.2 % v/v

For “Random 8-ethoxylate-2-propoxylate of N-methyl glucamine C13/C15 glycidyl ether [SE4]”, the “% control ABUTH” value [1, 7] was 40%, the “% control ABUTH” value [1, 8] was 48% and the “% control ABUTH” value [1, 9] was 25%. The “% control ABUTH” value [1, 10] was 43%, the “% control ABUTH” value [1, 11] was 42% and the “% control ABUTH” value [1, 12] was 33%. For the same substance, the “% control ABUTH” value [1, 13] was 50%, the “% control ABUTH” value [1, 14] was 52% and the “% control ABUTH” value [1, 15] was 42%. The “% control ABUTH” value [1, 16] was 65%, the “% control ABUTH” value [1, 17] was 58% and the “% control ABUTH” value [1, 18] was 68%. For the same substance, the “% control ABUTH” value [1, 19] was 78%, the “% control ABUTH” value [1, 20] was 80% and the “% control ABUTH” value [1, 21] was 81%. For the same substance, the “% control ABUTH” value [1, 22] was 85%, the “% control ECHCG” value [2, 23] was 12% and the “% control ECHCG” value [2, 24] was 15%. For the same substance, the “% control ECHCG” value [2, 25] was 51%, the “% control ECHCG” value [2, 26] was 53% and the “% control ECHCG” value [2, 7] was 32%. The “% control ECHCG” value [2, 8] was 35%, the “% control ECHCG” value [2, 9] was 68% and the “% control ECHCG” value [2, 10] was 91%. For the same substance, the “% control ECHCG” value [2, 11] was 78%, the “% control ECHCG” value [2, 12] was 83% and the “% control ECHCG” value [2, 13] was 90%. The “% control ECHCG” value [2, 14] was 98%, the “% control ECHCG” value [2, 15] was 90% and the “% control ECHCG” value [2, 16] was 89%. The “% control ECHCG” value [2, 17] was 95%, the “% control ECHCG” value [2, 18] was 98% and the “% control SIDSP” value [3, 7] was 30%. For the same substance, the “% control SIDSP” value [3, 8] was 38%, the “% control SIDSP” value [3, 9] was 38% and the “% control SIDSP” value [3, 10] was 38%. For the same substance, the “% control SIDSP” value [3, 11] was 37%, the “% control SIDSP” value [3, 12] was 38% and the “% control SIDSP” value [3, 13] was 52%. The “% control SIDSP” value [3, 14] was 62%, the “% control SIDSP” value [3, 15] was 50% and the “% control SIDSP” value [3, 16] was 63%. The “% control SIDSP” value [3, 17] was 77%, the “% control SIDSP” value [3, 18] was 76% and the “% control SIDSP” value [3, 19] was 76%. For the same substance, the “% control SIDSP” value [3, 20] was 78%, the “% control SIDSP” value [3, 21] was 78% and the “% control SIDSP” value [3, 22] was 77%. For the same substance, the “% control SOLNI” value [4, 7] was 37%, the “% control SOLNI” value [4, 8] was 32% and the “% control SOLNI” value [4, 9] was 63%. For the same substance, the “% control SOLNI” value [4, 10] was 73%, the “% control SOLNI” value [4, 11] was 65% and the “% control SOLNI” value [4, 12] was 68%. The “% control SOLNI” value [4, 13] was 71%, the “% control SOLNI” value [4, 14] was 78% and the “% control SOLNI” value [4, 15] was 78%. The “% control SOLNI” value [4, 16] was 73%, the “% control SOLNI” value [4, 17] was 80% and the “% control SOLNI” value [4, 18] was 82%. For the same substance, the “% control SOLNI” value [4, 19] was 83%, the “% control SOLNI” value [4, 20] was 83% and the “% control SOLNI” value [4, 21] was 84%. The “% control SOLNI” value [4, 22] was 85%, the “% control POROC” value [5, 7] was 7% and the “% control POROC” value [5, 8] was 2%. The “% control POROC” value [5, 9] was 13%, the “% control POROC” value [5, 10] was 35% and the “% control POROC” value [5, 11] was 8%. For the same substance, the “% control POROC” value [5, 12] was 18%, the “% control POROC” value [5, 13] was 43% and the “% control POROC” value [5, 14] was 46%. The “% control POROC” value [5, 15] was 28%, the “% control POROC” value [5, 16] was 36% and the “% control POROC” value [5, 17] was 45%. For the same substance, the “% control POROC” value [5, 18] was 50%, the “% control POROC” value [5, 19] was 42% and the “% control POROC” value [5, 20] was 47%. For the same substance, the “% control POROC” value [5, 21] was 63%, the “% control POROC” value [5, 22] was 81% and the “% control SORHA” value [6, 23] was 8%. For the same substance, the “% control SORHA” value [6, 24] was 8%, the “% control SORHA” value [6, 25] was 32% and the “% control SORHA” value [6, 26] was 84%. For the same substance, the “% control SORHA” value [6, 7] was 23%, the “% control SORHA” value [6, 8] was 20% and the “% control SORHA” value [6, 9] was 68%. The “% control SORHA” value [6, 10] was 89%, the “% control SORHA” value [6, 11] was 78% and the “% control SORHA” value [6, 12] was 70%. For the same substance, the “% control SORHA” value [6, 13] was 90%, the “% control SORHA” value [6, 14] was 95% and the “% control SORHA” value [6, 15] was 87%. For the same substance, the “% control SORHA” value [6, 16] was 89%, the “% control SORHA” value [6, 17] was 96% and the “% control SORHA” value [6, 18] was 95%.
